Measurements as given in patent publication US20210045385A1, “PYRIDAZINONE-SUBSTITUTED KETOXIMES AS HERBICIDES” (FMC Corporation, priority 2018, published 2021).

Experiments:
Assay type in all cases: in vivo
[1] = system: wheat (Triticum aestivum); assay: Test C postemergence, visual plant response rating
How it was run: (§1)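 Seeds sown in a loam–sand blend got a directed preemergence soil spray; postemergence plants (2–10 cm, one- to two-leaf stage) were sprayed with compound in a non-phytotoxic solvent plus surfactant. Injury was scored visually against untreated controls after about 10 d in a greenhouse on a 0–100 scale (100 = complete control).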

[2] = system: blackgrass (Alopecurus myosuroides); assay: Test C postemergence, visual plant response rating
How it was run: as §1

[3] = system: pigweed (Amaranthus retroflexus); assay: Test C postemergence, visual plant response rating
How it was run: as §1

[4] = system: galium (catchweed bedstraw, Galium aparine); assay: Test C postemergence, visual plant response rating
How it was run: as §1

kochia (Bassia scoparia) [5] = assay: Test C postemergence, visual plant response rating
How it was run: as §1

[6] = system: barnyardgrass (Echinochloa crus-galli); assay: Test C postemergence, visual plant response rating
How it was run: as §1

[7] = system: Italian ryegrass (Lolium mutiflorum); assay: Test C postemergence, visual plant response rating
How it was run: as §1

[8] = system: foxtail, giant (giant foxtail, Setaria faberi); assay: Test C postemergence, visual plant response rating
How it was run: as §1

corn (Zea mays) = assay: Test C postemergence, visual plant response rating
How it was run: as §1

[9] = system: ragweed (common ragweed, Ambrosia artemisiifolia); assay: Test C postemergence, visual plant response rating
How it was run: as §1

[10] = system: barnyardgrass (Echinochloa crus-galli); assay: Test D flooded paddy test, visual plant response rating; conditions: 250 g ai/ha, scale 0 to 100 (0 no effect, 100 complete control), 13 to 15 d
How it was run: (§2)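 Plants grown to the 2-leaf stage; pots flooded to 3 cm above soil and compound applied directly into paddy water, depth held throughout. Kept in greenhouse 13 to 15 d, then rated visually against untreated controls on a 0–100 scale (0 no effect, 100 complete control).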

[11] = system: duck salad (Heteranthera limosa); assay: as above; conditions: 250 g ai/ha, scale 0 to 100 (0 no effect, 100 complete control), 13 to 15 d
How it was run: as §2

rice (Oryza sativa) = assay: as above; conditions: 250 g ai/ha, scale 0 to 100 (0 no effect, 100 complete control), 13 to 15 d
How it was run: as §2

[12] = system: sedge umbrella (small-flower umbrella sedge, Cyperus difformis); assay: as above; conditions: 250 g ai/ha, scale 0 to 100 (0 no effect, 100 complete control), 13 to 15 d
How it was run: as §2

[13] = system: pigweed (Amaranthus retroflexus); assay: Test C preemergence, visual plant response rating; conditions: Test C, 0 is no effect, 100 is complete control
How it was run: as §1

kochia (Bassia scoparia) [14] = assay: Test C preemergence, visual plant response rating; conditions: Test C, 0 is no effect, 100 is complete control
How it was run: as §1

[15] = system: barnyardgrass (Echinochloa crus-galli); assay: Test C preemergence, visual plant response rating; conditions: Test C, 0 is no effect, 100 is complete control
How it was run: as §1

[16] = system: Italian ryegrass (Lolium mutiflorum); assay: Test C preemergence, visual plant response rating; conditions: Test C, 0 is no effect, 100 is complete control
How it was run: as §1

[17] = system: foxtail, giant (giant foxtail, Setaria faberi); assay: Test C preemergence, visual plant response rating; conditions: Test C, 0 is no effect, 100 is complete control
How it was run: as §1

[18] = system: ragweed (common ragweed, Ambrosia artemisiifolia); assay: Test C preemergence, visual plant response rating; conditions: Test C, 0 is no effect, 100 is complete control
How it was run: as §1

[19] = Test C, postemergence, 125 g ai/ha

Compound	Wheat plant response rating (0 to 100 scale) ([1]; Postemergence, 31 g ai/ha)	Wheat plant response rating (0 to 100 scale) [1, 19]	Blackgrass plant response rating (0 to 100 scale) ([2]; Postemergence, 31 g ai/ha)	Blackgrass plant response rating (0 to 100 scale) [2, 19]	Pigweed plant response rating (0 to 100 scale) ([3]; Postemergence, 31 g ai/ha)	Pigweed plant response rating (0 to 100 scale) [3, 19]	Galium plant response rating (0 to 100 scale) ([4]; Postemergence, 31 g ai/ha)	Galium plant response rating (0 to 100 scale) [4, 19]	Kochia plant response rating (0 to 100 scale) (kochia (Bassia scoparia) [5]; Postemergence, 31 g ai/ha)	Kochia plant response rating (0 to 100 scale) (kochia (Bassia scoparia) [5]; [19])	Barnyardgrass plant response rating (0 to 100 scale) ([6]; Postemergence, 31 g ai/ha)	Barnyardgrass plant response rating (0 to 100 scale) [6, 19]	Ryegrass, Italian plant response rating (0 to 100 scale) ([7]; Postemergence, 31 g ai/ha)	Ryegrass, Italian plant response rating (0 to 100 scale) [7, 19]	Foxtail, Giant plant response rating (0 to 100 scale) ([8]; Postemergence, 31 g ai/ha)	Foxtail, Giant plant response rating (0 to 100 scale) [8, 19]	Corn plant response rating (0 to 100 scale) (corn (Zea mays); Postemergence, 31 g ai/ha)	Corn plant response rating (0 to 100 scale) (corn (Zea mays); [19])	Ragweed plant response rating (0 to 100 scale) ([9]; Postemergence, 31 g ai/ha)	Ragweed plant response rating (0 to 100 scale) [9, 19]	also measured
C#CCON=C(c1cccc(OC(F)F)c1)c1c(O)c(C)nn(C)c1=O [Compound 201]	0	40	10	50	20	70	50	80	40	70	10	40	30	60	20	40	0	0	10	30	Plant response rating, Barnyardgrass (Flood) [10]: 0; Plant response rating, Ducksalad (Flood) [11]: 0; Plant response rating, Rice (Flood) (rice (Oryza sativa)): 0; Plant response rating, Sedge, Umbrella (Flood) [12]: 0; Pigweed plant response rating (0 to 100 scale) ([13]; 31 g ai/ha): 0; Pigweed plant response rating (0 to 100 scale) ([13]; 125 g ai/ha): 0; Kochia plant response rating (0 to 100 scale) (kochia (Bassia scoparia) [14]; 31 g ai/ha): 0; Kochia plant response rating (0 to 100 scale) (kochia (Bassia scoparia) [14]; 125 g ai/ha): 0; Barnyardgrass plant response rating (0 to 100 scale) ([15]; 31 g ai/ha): 0; Barnyardgrass plant response rating (0 to 100 scale) ([15]; 125 g ai/ha): 10; Ryegrass, Italian plant response rating (0 to 100 scale) ([16]; 31 g ai/ha): 10; Ryegrass, Italian plant response rating (0 to 100 scale) ([16]; 125 g ai/ha): 80; Foxtail, Giant plant response rating (0 to 100 scale) ([17]; 31 g ai/ha): 10; Foxtail, Giant plant response rating (0 to 100 scale) ([17]; 125 g ai/ha): 30; Ragweed plant response rating (0 to 100 scale) ([18]; 31 g ai/ha): 0; Ragweed plant response rating (0 to 100 scale) ([18]; 125 g ai/ha): 20
CON=C(c1cccc(OC(F)F)c1)c1c(O)c(C)nn(C)c1=O [Compound 202]	0	0	0	0	20	60	40	70	10	40	0	10	10	30	0	0	0	0	0	20	Plant response rating, Barnyardgrass (Flood) [10]: 0; Plant response rating, Ducksalad (Flood) [11]: 0; Plant response rating, Rice (Flood) (rice (Oryza sativa)): 0; Plant response rating, Sedge, Umbrella (Flood) [12]: 0; Pigweed plant response rating (0 to 100 scale) ([13]; 31 g ai/ha): 0; Pigweed plant response rating (0 to 100 scale) ([13]; 125 g ai/ha): 0; Kochia plant response rating (0 to 100 scale) (kochia (Bassia scoparia) [14]; 31 g ai/ha): 0; Kochia plant response rating (0 to 100 scale) (kochia (Bassia scoparia) [14]; 125 g ai/ha): 0; Barnyardgrass plant response rating (0 to 100 scale) ([15]; 31 g ai/ha): 0; Barnyardgrass plant response rating (0 to 100 scale) ([15]; 125 g ai/ha): 0; Ryegrass, Italian plant response rating (0 to 100 scale) ([16]; 31 g ai/ha): 0; Ryegrass, Italian plant response rating (0 to 100 scale) ([16]; 125 g ai/ha): 10; Foxtail, Giant plant response rating (0 to 100 scale) ([17]; 31 g ai/ha): 0; Foxtail, Giant plant response rating (0 to 100 scale) ([17]; 125 g ai/ha): 0; Ragweed plant response rating (0 to 100 scale) ([18]; 31 g ai/ha): 0; Ragweed plant response rating (0 to 100 scale) ([18]; 125 g ai/ha): 10
C#CCON=C(c1cccc(OC)c1)c1c(O)c(C)nn(C)c1=O [Compound 203]	0	0	0	0	10	20	30	30	20	50	0	20	30	30	0	30	0	0	0	10	Plant response rating, Barnyardgrass (Flood) [10]: 0; Plant response rating, Ducksalad (Flood) [11]: 0; Plant response rating, Rice (Flood) (rice (Oryza sativa)): 0; Plant response rating, Sedge, Umbrella (Flood) [12]: 0; Pigweed plant response rating (0 to 100 scale) ([13]; 31 g ai/ha): 0; Pigweed plant response rating (0 to 100 scale) ([13]; 125 g ai/ha): 0; Kochia plant response rating (0 to 100 scale) (kochia (Bassia scoparia) [14]; 31 g ai/ha): 0; Kochia plant response rating (0 to 100 scale) (kochia (Bassia scoparia) [14]; 125 g ai/ha): 0; Barnyardgrass plant response rating (0 to 100 scale) ([15]; 31 g ai/ha): 0; Barnyardgrass plant response rating (0 to 100 scale) ([15]; 125 g ai/ha): 0; Ryegrass, Italian plant response rating (0 to 100 scale) ([16]; 31 g ai/ha): 0; Ryegrass, Italian plant response rating (0 to 100 scale) ([16]; 125 g ai/ha): 0; Foxtail, Giant plant response rating (0 to 100 scale) ([17]; 31 g ai/ha): 0; Foxtail, Giant plant response rating (0 to 100 scale) ([17]; 125 g ai/ha): 10; Ragweed plant response rating (0 to 100 scale) ([18]; 31 g ai/ha): 0; Ragweed plant response rating (0 to 100 scale) ([18]; 125 g ai/ha): 0
CON=C(c1cccc(OC)c1)c1c(O)c(C)nn(C)c1=O [Compound 204]	0	0	0	0	0	10	10	40	0	10	0	0	0	0	0	0	0	0	0	0	Plant response rating, Barnyardgrass (Flood) [10]: 0; Plant response rating, Ducksalad (Flood) [11]: 0; Plant response rating, Rice (Flood) (rice (Oryza sativa)): 0; Plant response rating, Sedge, Umbrella (Flood) [12]: 0; Pigweed plant response rating (0 to 100 scale) ([13]; 31 g ai/ha): 0; Pigweed plant response rating (0 to 100 scale) ([13]; 125 g ai/ha): 0; Kochia plant response rating (0 to 100 scale) (kochia (Bassia scoparia) [14]; 31 g ai/ha): 0; Kochia plant response rating (0 to 100 scale) (kochia (Bassia scoparia) [14]; 125 g ai/ha): 0; Barnyardgrass plant response rating (0 to 100 scale) ([15]; 31 g ai/ha): 0; Barnyardgrass plant response rating (0 to 100 scale) ([15]; 125 g ai/ha): 0; Ryegrass, Italian plant response rating (0 to 100 scale) ([16]; 31 g ai/ha): 0; Ryegrass, Italian plant response rating (0 to 100 scale) ([16]; 125 g ai/ha): 0; Foxtail, Giant plant response rating (0 to 100 scale) ([17]; 31 g ai/ha): 0; Foxtail, Giant plant response rating (0 to 100 scale) ([17]; 125 g ai/ha): 0; Ragweed plant response rating (0 to 100 scale) ([18]; 31 g ai/ha): 0; Ragweed plant response rating (0 to 100 scale) ([18]; 125 g ai/ha): 0
